Results from a melting point compilation (Tetko et al.; mined from patent text by program, amines drawn as free bases though some values may be those of a salt).

| melting point [°C] | Structure (SMILES) |
| --- | --- |
| 99 to 101 | Cn1nc2nnsc2c1Br |
| 122 to 125 | COc1ccc(-c2cc(Oc3c(C)cc(C)cc3C)nc(C)n2)cc1OC |
| > 300 | O=C(O)C1([N+](=O)[O-])C(c2ccc([N+](=O)[O-])cc2)N=C2C=CC=CN21 (stereo not given) |
| 182 | COc1ccc(C(=O)Nc2ccc3sc(C)nc3c2Cl)cc1 |
| > 250 | CCOc1cccc2c1C(=NNc1ccc(S(N)(=O)=O)cc1)C(=O)N2 |
| 190 to 192 | Nc1ccc(-n2ccnc2S(=O)Cc2ccccc2N2CCOCC2)nc1 (stereo not given) |
| 111 to 113 | Cc1cc(Oc2c(Cl)cc(C(F)(F)F)cc2Cl)nn1C(=O)NCC=O |
| 167 to 170 | O=C(O)Cc1cccc(Oc2ccc(Cl)cc2)c1[N+](=O)[O-] |
| 151 to 153 | CCOc1ccc(CN2C(=O)SC(CCCC#Cc3ccc(Cl)cc3)(S(=O)(=O)c3ccc(C)cc3)C2=O)c(OCC)c1 (stereo not given) |
| 247 to 248 | CN(C)c1cc2c(cc1Cl)NC(=O)CC(c1cccc(-c3csc(N)n3)c1)=N2 |
| 158 to 159 | O=C1c2cccnc2-c2cccnc21 |
| 203 to 206 | CCCc1c(OCc2ccc(C(=O)O)cc2F)ccc(C(C)=O)c1O |
| 105 | COC(=O)[C@H](O)[C@@H](N)c1ccc(F)cc1 |
| 96 to 101 | CC(C)C(c1cccc(NC(=O)OCc2ccccc2)c1)c1c(O)c2c(oc1=O)CCCCCC2 (stereo not given) |
| > 300 | CC(C)(C)OC(=O)NC1CCN(c2ccc(C(=O)O)cc2)CC1 |
| 181 to 182 | O=c1oc(-c2ccc(C#Cc3ccccc3)cc2)cc(O)c1SCCc1ccccc1 |
| 187 to 188 | COc1cc(OC)c2c(c1)N(Cc1ccccn1)C(=O)C21COc2cc3c(cc21)OCCO3 (stereo not given) |
| 241 to 242 | O=C(Nc1cccc2ccccc12)N[C@H]1C[C@H](C(=O)O)Nc2cc(Cl)cc(Cl)c21 (relative stereo) |
| 155 to 157 | O=C1CCCN1CC1CCN(c2nc(C(F)(F)F)ncc2OCc2ccccc2)CC1 |
| 123 to 129 | Ic1nnnn1-c1ccccc1 |
| 53 to 55 | NS(=O)(=O)Oc1cccc(F)c1 |
| 171 to 173 | CCOC(=O)CCNC(=O)Oc1c(C)n(C)ccc1=O |
| 188 | Cc1cc2c(N)c(C(=O)c3cc(F)ccc3F)sc2nc1C |
| 284 to 285 | NC(=O)Cc1cc(Oc2ccc3c(ccn3C(=O)Nc3ccc(N4CCS(=O)(=O)CC4)c(C(F)(F)F)c3)c2)ncn1 |
| 92.5 to 93.6 | CC1=C(C(=O)c2ccc3c(c2)CN(C(N)=O)CC3)C(C)(C)CCC1 |

| melting point [°C] | Structure (SMILES) |
| --- | --- |
| 195 to 196 | CS(=O)(=O)c1ccc(-n2nc(C(F)(F)F)cc2-c2nc3ccc(Cl)cc3s2)cc1 |
| 282 to 284 | CCc1ccc(C2C(C(=O)c3ccc(C(C)C)cc3)=C(O)C(=O)N2c2ccc(C)nn2)cc1 (stereo not given) |
| 59 to 60 | CCCCCCCCNCC(O)COc1ccc(SC)cc1C (stereo not given) |
| 235 to 236 | CCCCc1nc2c(C(N)=O)cccc2n1Cc1ccc(-c2ccccc2-c2nnn[nH]2)cc1 |
| 162 to 165 | Cc1cc(C=C2SCNC2=O)cc(C(C)(C)C)c1O |
| 63 to 64 | CCC1(CC)c2ccccc2C(CC)(CC)N1OC(C)(C)C#N |
| 188 to 189 | CS(=O)(=O)c1ccc(-c2cnn(CC(=O)c3ccc(C#N)cc3)c(=O)c2-c2ccc(F)cc2)cc1 |
| 127 to 128 | O=C(O)Cc1ccccc1OCCCc1cn(-c2ccc(C(F)(F)F)cn2)nc1C1CCCCC1 |
| 158 to 161 | Cc1cccc(C(=O)CC(Cc2ccccc2)C(=O)O)c1 (stereo not given) |
| 155 to 156 | CCCCOCCOc1ccc(-c2ccc(N3CCCC3)c(C=C(CC)C(=O)O)c2)cc1 |
| 119 to 120 | O=C(O)C(Cc1ccc(OCCN2c3ccccc3Oc3ccccc32)cc1)Oc1ccccc1 (stereo not given) |
| 138 to 140 | COC(=O)c1ccc(OC)c(NC(=O)C[C@H]2O[C@H](c3cccc(OC)c3OC)c3cc(Cl)ccc3N(CC(C)(C)COC(C)=O)C2=O)c1 |
| 31 to 33 | CCCCC(CBr)CCCc1ccccc1 (stereo not given) |
| 189 to 190 | COC(=O)c1cc2ccc(C(=O)OC(C)(C)C)cc2[nH]1 |
| 209 to 211 | N#Cc1c(C(=O)O)cnn1-c1ccc(Br)cc1 |
| 87 to 89 | FC(F)(F)C(F)(F)Oc1ccc(-c2nnco2)cc1 |
| 143 to 145 | O=C1c2ccccc2C(O)N1CCO[N+](=O)[O-] (stereo not given) |
| 67 to 71 | CC(=O)CC(=O)OCCCN1C(=O)c2ccccc2C1=O |
| 126 to 129 | CC1(C)C(C(=O)O)C12C=CC=C2 (stereo not given) |
| 227 | O=c1ccc2cc(C(c3ccccc3)n3ccnc3)ccc2[nH]1 (stereo not given) |
| 240 | COc1ccc(N2CCN(C(N)=O)C2=O)cc1OC |
| 220 to 222 | CCOC(=O)C1=C(C)NC2=C(C(=O)OC2)C1c1ccccc1[N+](=O)[O-] (stereo not given) |
| 46 to 47 | CCCCCCCCCCCCCCCCSC(N)C(CN)C(=O)OC(C)(C)C (stereo not given) |
| 111 to 113 | COc1ccc(-n2nc(C(F)(F)F)cc2OCN2C(=O)c3c(C(C)C)cc(OC)cc3S2(=O)=O)cc1 |
| 79 to 80 | CCOC(=O)CCCCCSc1nnc(S)s1 |

| melting point [°C] | Structure (SMILES) |
| --- | --- |
| 187 to 190 | CCCCOc1ccc2c(=O)c(-c3nnnn3C)cn(C)c2c1 |
| > 300 | O=C(c1ccccc1)c1ccc(-c2cnn3c(O)ncnc23)cc1 |
| 198 to 200 | O=C(c1ccc(O)cc1)c1sc2cc(O)ccc2c1-c1ccccc1 |
| 108 to 111 | COCCOc1ccc(CCl)c(Oc2ncc(C(F)(F)F)cc2Cl)c1 |
| 166 to 167 | N#Cc1cc(Cn2cncn2)cc(-c2ccc(OS(N)(=O)=O)cc2)c1 |
| 194 to 197 | Clc1nnc(CN2CC3(COc4cc5c(cc43)OCO5)c3ccccc32)s1 (stereo not given) |
| 74 to 75 | N#CC(OC(=O)CC=Cc1ccccc1)c1ccc2ccccc2c1 (stereo not given) |
| 166 to 167 | Cc1c(NC(=O)c2ccc(-c3ccc(Cl)s3)cc2F)ccc2cc(CN3CCCCCC3)cnc12 |
| 145 to 147 | CC(C)(C)CC(=O)NCc1cccc2c1C(=O)N(C1CCC(=O)NC1=O)C2=O (stereo not given) |
| 224 to 226 | CC(C)(C)CNc1nc(-c2[nH]c(C(C)(C)C)nc2-c2ccccc2)ccc1[N+](=O)[O-] |
| 186 to 194 | Cc1cccc(N2Cc3nc(CO)nn3-c3ccccc32)c1C |
| 182 to 184 | CC(c1ccncc1Cl)C(O)(Cn1cncn1)c1ccc(F)cc1F (stereo not given) |
| 46 to 47 | COC(=O)c1ccc2c(C)csc2c1 |
| 58 to 60 | C=CCN1C(=O)c2cccc(C)c2Oc2ncccc21 |
| 149 to 150 | CCCCOC1c2ccccc2C(=O)N(CC(C)C)C1(/C=C/C(N)=O)CNC(=O)OC(C)(C)C (stereo not given) |
| 84.5 | CN(N=Cc1ccccc1)C(=NC(=O)CN1C(=O)c2ccccc2C1=O)NCCCOc1cccc(CN2CCCCC2)c1 |
| > 300 | Cc1cnc2c(=O)[nH]c3cc(Cl)c(Cl)cc3n12 |
| > 250 | COc1ccc(-c2nc(C(=O)Nc3nccs3)c(-c3ccc(C)cc3)[nH]2)c2ccccc12 |
| 80 to 81 | O=C(CCc1conc1-c1ccc(Cl)cc1)NCc1cccc(C(F)(F)F)c1 |
| > 300 | COc1ccc(-c2[nH]nc3c2C(=O)c2c(NC(=O)CN4CCN(c5ccccn5)CC4)cccc2-3)cc1 |
| 205 to 211 | CCOC(=O)c1c(-c2ccc(-c3ccccn3)cc2)n(C)n(-c2ccc(C#N)cc2)c1=O |
| 48 to 50 | N#Cc1cc(Cl)c(F)cc1F |
| 93 to 95 | CCc1cccc(CC(=O)O)c1OCCCc1cn(-c2ncc(C(F)(F)F)cc2Cl)nc1C(C)C |
| 128 to 129 | CC(C)(C)c1cc(C=O)c(O)c(S(=O)(=O)CCl)c1 |
| 138 to 140 | CCN(CC)CCN1C(=O)Nc2cnccc2C1c1ccccc1 (stereo not given) |

| melting point [°C] | Structure (SMILES) |
| --- | --- |
| 95 | COC(=O)CCCC(=N)Nc1[nH]c2ccccc2c1C(=O)OC |
| 177 | CC(=O)Nc1c(OCc2ccccc2)cc(Br)cc1N(C)C |
| 60 to 62 | COC(=O)C(C)(OCc1ccc2cc(OC)ccc2c1)C(F)(F)F (stereo not given) |
| 97 | COCCCN1CC[C@@H](CNC(=O)c2cc(Cl)c(N)c3c2OC(C)(C)C3)[C@H](O)C1 (relative stereo) |
| 132 | Cn1c(=O)oc2cc(C(O)CCN3CCOCC3)ccc21 (stereo not given) |
| 213 to 215 | O=C(O)c1ccc(Cc2ccc(O)cc2)cn1 |
| 51 to 53 | CSc1nc(C(C)(C)C)nn1C(=O)N(C)C |
| 99 | COC(=O)C1=C(C)NC(C)=C(C(=O)OCCN(C)C)C1c1cccc2nonc12 (stereo not given) |
| 105 to 107 | CC(C)c1nn(-c2ccccn2)c(-c2ccc(F)cc2)c1/C=C/C=O |
| 213 | Cc1ccn2c(-c3ccnc(-c4ccc(OCC(N)=O)cc4)c3)c(-c3cccc(C)n3)nc2c1 |
| 122 to 124 | CC(C(=O)O)c1ccc2oc(Cc3c(Cl)cccc3Cl)nc2c1 (stereo not given) |
| 118 to 123 | C[C@@H]1OCCN(c2cc(N3CCOCC3)nc(-n3c(N)nc4ccccc43)n2)[C@@H]1C (relative stereo) |
| 211 to 213 | COC(=O)c1cn(Cc2ccccc2)c2ccc(C3CCCCC3)cc2c1=O |
| 66 to 68 | O=C(c1ccccc1)c1cncc(Br)c1 |
| 107 to 109 | Cc1ccc(-c2ccc(C#N)cc2)cc1 |
| 73 to 75 | O=C(Cl)CCS(=O)(=O)CCCl |
| 88 to 97 | CC1(C)c2ccc(C(O)CN3CCN(c4nsc5ccccc45)CC3)cc2C(C)(C)C1O (stereo not given) |
| 141 to 143 | CC1(C)Oc2ccc3nc(Cl)ccc3c2C(NCCc2ccccc2)C1O (stereo not given) |
| 69 to 71 | BrCCCCCCCn1c(-c2ccccc2)nc(-c2ccccc2)c1-c1ccccc1 |
| 199 to 200 | CCC(=O)N(CC)c1cccc(-c2ccc3nnc(N)n3n2)c1 |
| 259 to 261 | O=C(O)c1ccc(C(=O)NS(=O)(=O)c2ccccc2)cc1 |
| 52 to 55 | COC(=O)CCCC(=O)c1ccccc1C=CBr |
| 118 to 128 | CS(=O)(=O)N[C@@H]1CCCC[C@H]1Nc1nc(Nc2ccc3c(c2)CCC(F)(F)CC3)ncc1Cl |

| Structure (SMILES) | melting point [°C] |
| --- | --- |
| CCN1CCC(O)(c2cccc(OC)c2)CC1 | 86.7 to 91.1 |
| OCC(I)c1ccccc1 (stereo not given) | 71 to 72 |
